Key:
sodium channel = test: Guanidine influx assay (14C-guanidine radiotracer flux, in vitro); format: cell-based, human or rat; details: guanidine influx assay using a known cell line that expresses a sodium channel
Outline: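 Cells (human/rat Nav, endogenous or recombinant), ~100,000/well, 20-24 h 37 °C/5% CO2. Wash LNHBSS (150 mM choline Cl, HEPES, glucose). Add cpd + aconitine/14C-guanidine mix, RT. Wash, dry, scintillation count. IC50: 4-PL fit; selectivity as IC50 ratio vs reference channel, e.g. Nav1.5.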

CYP3A4 = CYP3A4 (Homo sapiens, UniProt P08684); test: Cytochrome P450 (CYP450) Inhibition Assay, CYP3A4 (Vivid fluorescence, BOMCC substrate); details: human, P450 Baculosomes (recombinant CYP3A4), probe BOMCC (Vivid substrate)
CYP3A4, sequence (P08684 whole entry): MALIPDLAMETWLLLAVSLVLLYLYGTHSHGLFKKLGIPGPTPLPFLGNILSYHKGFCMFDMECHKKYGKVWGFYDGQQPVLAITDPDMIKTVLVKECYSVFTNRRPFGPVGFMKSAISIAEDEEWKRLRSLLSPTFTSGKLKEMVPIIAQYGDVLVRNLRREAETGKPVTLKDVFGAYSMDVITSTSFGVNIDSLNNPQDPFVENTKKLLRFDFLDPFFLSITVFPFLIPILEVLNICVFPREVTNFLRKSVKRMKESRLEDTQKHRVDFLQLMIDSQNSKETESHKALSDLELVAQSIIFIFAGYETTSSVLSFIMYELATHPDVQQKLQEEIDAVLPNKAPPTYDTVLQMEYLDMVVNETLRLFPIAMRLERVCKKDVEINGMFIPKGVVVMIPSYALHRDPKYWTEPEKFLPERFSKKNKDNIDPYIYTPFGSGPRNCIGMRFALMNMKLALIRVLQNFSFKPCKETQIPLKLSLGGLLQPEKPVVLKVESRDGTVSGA

| SMILES | IC50 (sodium channel) | melting point | inhibition at 10 µM (CYP3A4) |
| --- | --- | --- | --- |
| O=C(CN1C(=O)C2(COc3cc4c(cc32)OCCO4)c2ccccc21)Nc1ccccc1F (stereo not drawn) [Example 13.7, N-(2-fluorophenyl)-2-(2′-oxo-2,3-dihydrospiro[furo[2,3-g][1,4]benzodioxine-8,3′-indol]-1′(2′H)-yl)acetamide] | 0.001 to 0.1 µM | 117 to 119 °C | < 50% |
| C[C@@H](CN1C(=O)C2(COc3cc4c(cc32)CCO4)c2ccccc21)OCc1ccccc1 (stereo partly drawn) [Example 14.1, 1′-[(2S)-2-(benzyloxy)propyl]-5,6-dihydrospiro[benzo[1,2-b:5,4-b′]difuran-3,3′-indol]-2′(1′H)-one] | 0.1 to 1 µM | 45 to 47 °C | > 50% |
| C[C@@H](CN1C(=O)C2(COc3cc4c(cc32)CCO4)c2ccccc21)OCc1ccc(F)cc1 (stereo partly drawn) [Example 14.2, 1′-{(2S)-2-[(4-fluorobenzyl)oxy]propyl}-5,6-dihydrospiro[benzo[1,2-b:5,4-b′]difuran-3,3′-indol]-2′(1′H)-one] | 0.1 to 1 µM | 55 to 60 °C | > 50% |
| C[C@@H](CN1C(=O)C2(COc3cc4c(cc32)CCO4)c2ccccc21)OCc1ccccn1 (stereo partly drawn) [Example 14.3, 1′-[(2S)-2-(pyridin-2-ylmethoxy)propyl]-5,6-dihydrospiro[benzo[1,2-b:5,4-b′]difuran-3,3′-indol]-2′(1′H)-one] | 1 to 10 µM | 46 to 54 °C | > 50% |
| CC(O)CCN1C(=O)C2(COc3cc4c(cc32)CCO4)c2ccccc21 (stereo not drawn) [Example 14.4, 1′-(3-hydroxybutyl)-5,6-dihydrospiro[benzo[1,2-b:5,4-b′]difuran-3,3′-indol]-2′(1′H)-one] | 0.1 to 1 µM | 64 to 66 °C | < 50% |

Next, values leading:

| IC50 (sodium channel) | melting point | inhibition at 10 µM (CYP3A4) | SMILES |
| --- | --- | --- | --- |
| 0.1 to 1 µM | 90 to 96 °C | > 50% | CN(C)C(=O)c1cccc(CN2C(=O)C3(COc4cc5c(cc43)OCCO5)c3ccccc32)c1 (stereo not drawn) [Example 12.62, N,N-dimethyl-3-[(2′-oxo-2,3-dihydrospiro[furo[2,3-g][1,4]benzodioxine-8,3′-indol]-1′(2′H)-yl)methyl]benzamide] |
| 0.1 to 1 µM | 245 to 251 °C | < 50% | O=C(Nc1ccccc1F)c1ccc(CN2C(=O)C3(COc4cc5c(cc43)OCCO5)c3ccccc32)cc1 (stereo not drawn) [Example 12.65, N-(2-fluorophenyl)-4-[(2′-oxo-2,3-dihydrospiro[furo[2,3-g][1,4]benzodioxine-8,3′-indol]-1′(2′H)-yl)methyl]benzamide] |
| 0.1 to 1 µM | 65 to 70 °C | > 50% | O=C(NCCCN1C(=O)C2(COc3cc4c(cc32)CCO4)c2ccccc21)c1ccccc1OC(F)(F)F (stereo not drawn) [Example 13.11, N-[3-(2′-oxo-5,6-dihydrospiro[benzo[1,2-b:5,4-b′]difuran-3,3′-indol]-1′(2′H)-yl)propyl]-2-(trifluoromethoxy)benzamide] |
| 0.1 to 1 µM | 171 to 174 °C | < 50% | C[C@H](O)CN1C(=O)C2(COc3cc4c(cc32)CCO4)c2ccccc21 (stereo partly drawn) [Example 14, 1′-[(2S)-2-hydroxypropyl]-5,6-dihydrospiro[benzo[1,2-b:5,4-b′]difuran-3,3′-indol]-2′(1′H)-one] |
| 0.1 to 1 µM | 124 to 126 °C | > 50% | O=C1N(CCC(O)C(F)(F)F)c2ccccc2C12COc1cc3c(cc12)CCO3 (stereo not drawn) [Example 14.5, 1′-(4,4,4-trifluoro-3-hydroxybutyl)-5,6-dihydrospiro[benzo[1,2-b:5,4-b′]difuran-3,3′-indol]-2′(1′H)-one] |
| 1 to 10 µM | 98 to 101 °C | > 50% | CC(C)CCNCCCN1C(=O)C2(COc3cc4c(cc32)CCO4)c2ccccc21.Cl (stereo not drawn) [Example 15.1, 1′-{3-[(3-methylbutyl)amino]propyl}-5,6-dihydrospiro[benzo[1,2-b:5,4-b′]difuran-3,3′-indol]-2′(1′H)-one hydrochloride] |

From US8263606B2 (Xenon Pharmaceuticals Inc., priority 2008, dated 2012)
